Assay results as given in patent publication US7223751B2, “Sulfonamide derivatives, intermediate thereof, its preparation methods, and pharmaceutical composition comprising the same” (Kolon Ind. Inc., priority 2001, dated 2007).

Tests used:
[1] = molecular target: T1, MMP-2 (Homo sapiens, UniProt P08253); test: MMP inhibiting activity, fluorescence assay; format: biochemical; settings: read-out: Enzyme inhibiting constant IC50 MMP-2
T1 sequence (P08253 110-660): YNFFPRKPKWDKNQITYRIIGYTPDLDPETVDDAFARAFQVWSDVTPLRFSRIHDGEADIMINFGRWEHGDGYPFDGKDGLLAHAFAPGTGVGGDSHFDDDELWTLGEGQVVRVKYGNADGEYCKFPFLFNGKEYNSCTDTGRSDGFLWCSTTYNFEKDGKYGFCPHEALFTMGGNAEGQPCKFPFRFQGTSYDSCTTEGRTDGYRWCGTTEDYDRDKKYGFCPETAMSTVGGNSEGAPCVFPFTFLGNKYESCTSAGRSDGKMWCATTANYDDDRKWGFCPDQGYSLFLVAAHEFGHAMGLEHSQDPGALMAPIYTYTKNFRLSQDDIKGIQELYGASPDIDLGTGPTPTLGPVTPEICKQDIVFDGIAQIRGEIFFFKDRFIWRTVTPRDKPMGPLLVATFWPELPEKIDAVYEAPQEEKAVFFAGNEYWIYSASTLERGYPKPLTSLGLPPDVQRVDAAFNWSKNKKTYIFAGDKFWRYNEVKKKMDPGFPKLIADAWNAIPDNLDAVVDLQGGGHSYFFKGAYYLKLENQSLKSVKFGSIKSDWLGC
Experimental: (§1) Inhibitory activities of all the enzymes were measured similarly to the MMP-2 activity measuring method shown below. Prior to measuring, proMMP-2 was treated with 1 mM p-aminophenyl mercuricacetate at 37° C. for 45 minutes to activate it. The ProMMP-9 was activated to an enzyme with MMP-3, and stored at −80° C. until used.
(§2) MMP activities were measured by fluorescence assay by changing a microtiter plate formate according to the reported method (Knight, C. G., Willenbrock, F., Murphy, G. A., FEBS Lett. 1992, 296, 263-266). On a dynatech MicroFLUOR plate, a buffer solution comprising 50 Mm Tris-HCl pH 7.5, 10 mM CaCl2, 0.15 M NaCl, 0.05% Brij, and 1-8 μM of a substrate (Mca-Pro-Leu-Gly-Leu-Dpa-Ala-Arg-NH2), and various concentrations of inhibitors were introduced, and it was reacted with activated enzymes at 37° C. for 20-30 minutes. Reaction was terminated by putting the reactant in 50 mM EDTA, and then fluorescence was measured with a spectrofluorometer attached to a microplate reader (λex 328 nm, λ em 393 nm). The inhibiting activity degree was indicated by an IC50 value, which is a concentration inhibiting activity by 50% compared to the control.

[2] = molecular target: T2, MMP-1 (Homo sapiens, UniProt P03956); test: MMP inhibiting activity, fluorescence assay; format: biochemical; settings: read-out: Enzyme inhibiting constant IC50 MMP-1
T2 sequence (P03956 100-469): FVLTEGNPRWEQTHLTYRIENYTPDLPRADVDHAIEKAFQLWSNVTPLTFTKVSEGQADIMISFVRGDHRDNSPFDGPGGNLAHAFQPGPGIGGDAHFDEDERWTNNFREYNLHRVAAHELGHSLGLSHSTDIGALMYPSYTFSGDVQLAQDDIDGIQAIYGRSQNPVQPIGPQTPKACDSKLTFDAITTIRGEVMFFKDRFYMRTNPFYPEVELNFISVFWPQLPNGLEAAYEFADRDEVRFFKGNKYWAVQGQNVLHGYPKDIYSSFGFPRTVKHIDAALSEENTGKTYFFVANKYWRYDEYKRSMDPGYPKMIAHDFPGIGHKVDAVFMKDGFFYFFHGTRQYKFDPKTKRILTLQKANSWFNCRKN
Experimental: as §1, §2

[3] = molecular target: MMP-13 (Homo sapiens, UniProt P45452); test: MMP inhibiting activity, fluorescence assay; format: biochemical; settings: read-out: Enzyme inhibiting constant IC50 MMP-13
Experimental: as §1, §2

[4] = tested on: HUVEC (human umbilical vein endothelial cell) cells; test: Tube formation activity on matrigel; format: cell-based; parameters: key: −: control; ±: tube almost resembles control; +: inhibition; ++: significant inhibition; +++: complete inhibition; settings: 16-24 hours
Experimental: In a culture flask previously coated with gelatin, HUVEC (human umbilical vein endothelial cell) cells cultured with a M199 medium (containing 20% FBS, 3 ng/ml bFGF, 100 μg/ml heparin) were treated with trypsin/EDTA, and then number of cells are counted so that number of cells may be 2×10^4 cells/well in a 96-well plate previously coated with matrigel. Samples were then added and cultured in a CO2 culture medium at 37° C. for 16-24 hours.

[5] = molecular target: MMP-9 (Homo sapiens, UniProt P14780); test: MMP inhibiting activity, fluorescence assay; format: biochemical; settings: read-out: Enzyme inhibiting constant IC50 MMP-9
Experimental: as §1, §2

[6] = molecular target: MMP-14 (Homo sapiens, UniProt P50281); test: MMP inhibiting activity, fluorescence assay; format: biochemical; settings: read-out: Enzyme inhibiting constant IC50 MMP-14
Experimental: as §1, §2

Sequence of MMP-9 (P14780 107-707 limits assumed, species assumed): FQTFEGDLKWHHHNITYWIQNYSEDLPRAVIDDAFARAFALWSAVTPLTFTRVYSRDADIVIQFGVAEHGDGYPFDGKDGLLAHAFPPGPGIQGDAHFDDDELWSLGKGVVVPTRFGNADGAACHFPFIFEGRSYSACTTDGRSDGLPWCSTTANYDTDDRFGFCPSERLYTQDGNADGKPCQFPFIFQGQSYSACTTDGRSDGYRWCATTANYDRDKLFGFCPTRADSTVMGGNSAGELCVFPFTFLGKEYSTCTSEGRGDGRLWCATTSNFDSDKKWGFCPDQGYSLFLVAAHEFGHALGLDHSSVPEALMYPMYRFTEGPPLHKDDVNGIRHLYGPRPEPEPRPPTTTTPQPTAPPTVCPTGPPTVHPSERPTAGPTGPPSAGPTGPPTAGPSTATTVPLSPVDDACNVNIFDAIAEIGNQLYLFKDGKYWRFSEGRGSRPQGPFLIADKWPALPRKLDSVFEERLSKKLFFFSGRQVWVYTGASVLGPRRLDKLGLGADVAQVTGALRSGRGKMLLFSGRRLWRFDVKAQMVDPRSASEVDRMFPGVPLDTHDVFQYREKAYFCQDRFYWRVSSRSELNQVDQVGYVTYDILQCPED

Work on `O=C(O)C1CN(CCCCCCO)C(=O)CN1S(=O)(=O)c1ccc(-c2ccc(Br)cc2)cc1` (stereo not drawn) [Example 51, 1-(4′-Bromo-biphenyl-4-sulfonyl)-4-(6-hydroxy-hexyl)-5-oxo-piperazine-2-carboxylic acid] yielded an IC50 [1] of 5 nM, an IC50 [2] of 29 nM and an IC50 [3] of 19 nM.
`COc1ccc(S(=O)(=O)N2CC(=O)N(CCc3ccccn3)CC2C(=O)NO)cc1` (stereo not drawn) [Example 15] was tested, and the IC50 [1] was > 10000 nM, the IC50 [2] was > 10000 nM and the IC50 [3] was > 10000 nM. The “Tube Formation” value ([4]; concentration 5 μM) was “+”, the “Tube Formation” value ([4]; concentration 50 μM) was “+” and the “Tube Formation” value ([4]; concentration 100 μM) was “++”.
In the case of `CCCCCCCCC=CCCCCCCCCN1CC(C(=O)O)N(S(=O)(=O)c2ccc(-c3ccc(Br)cc3)cc2)CC1=O` (stereo not drawn) [Example 53, 1-(4′-Bromo-biphenyl-4-sulfonyl)-4-octadec-9-enyl-5-oxo-piperazine-2-carboxylic acid], the IC50 [1] is reported as 220 nM, the IC50 [2] is reported as > 10000 nM and the IC50 [3] is reported as > 10000 nM.
Compound `CCCCN1CC(C(=O)O)N(S(=O)(=O)c2ccc(-c3ccc(Br)cc3)cc2)CC1=O` (stereo not drawn) [Example 49, 1-(4′-Bromo-biphenyl-4-sulfonyl)-4-butyl-5-oxo-piperazine-2-carboxylic acid] has an IC50 [1] of 9 nM, an IC50 [2] of 114 nM and an IC50 [3] of 1130 nM. For the same compound, the “Tube Formation” value ([4]; concentration 0.5 μM) was “±”, the “Tube Formation” value ([4]; concentration 5 μM) was “++” and the “Tube Formation” value ([4]; concentration 50 μM) was “++”.
“4-Benzyl-1-(4-methoxy-benzenesulfonyl)-5-oxo-piperazine-2-hydroxamate [Example 7]” was tested, and the IC50 [1] was 7 nM, the IC50 [2] was 52 nM and the IC50 [3] was 18 nM. For the same compound, the IC50 [5] was 25 nM, the IC50 [6] was 36 nM and the “Tube Formation” value ([4]; concentration 5 μM) was “±”. The “Tube Formation” value ([4]; concentration 50 μM) was “+”.
`CCCCCCCCCCCCN1CC(C(=O)O)N(S(=O)(=O)c2ccc(-c3ccc(Br)cc3)cc2)CC1=O` (stereo not drawn) [Example 39, 1-(4′-Bromo-biphenyl-4-sulfonyl)-4-dodecyl-5-oxo-piperazine-2-carboxylic acid] was tested, and the IC50 [1] was 567 nM, the IC50 [2] was 8270 nM and the IC50 [3] was 2350 nM. For the same compound, the “Tube Formation” value ([4]; concentration 0.5 μM) was “−”, the “Tube Formation” value ([4]; concentration 5 μM) was “−” and the “Tube Formation” value ([4]; concentration 50 μM) was “+”.
Work on `CCCCCCCCN1CC(C(=O)NO)N(S(=O)(=O)c2ccc(-c3ccc(Br)cc3)cc2)CC1=O` (stereo not drawn) [Example 32, 1-(4′-Bromo-biphenyl-4-sulfonyl)-4-octyl-5-oxo-piperazine-2-hydroxamate] yielded an IC50 [1] of 2 nM, an IC50 [2] of 16 nM and an IC50 [3] of 7 nM. For the same compound, the IC50 [5] was 1.3 nM, the “Tube Formation” value ([4]; concentration 5 μM) was “++” and the “Tube Formation” value ([4]; concentration 50 μM) was “+++”. The “Tube Formation” value ([4]; concentration 100 μM) was “+++”.
`CCCCCCCCCCN1CC(C(=O)O)N(S(=O)(=O)c2ccc(-c3ccc(Br)cc3)cc2)CC1=O` (stereo not drawn) [Example 47, 1-(4′-Bromo-biphenyl-4-sulfonyl)-4-decyl-5-oxo-piperazine-2-carboxylic acid] showed an IC50 [1] of 140 nM, an IC50 [2] of 5400 nM and an IC50 [3] of 2460 nM. The “Tube Formation” value ([4]; concentration 0.5 μM) was “++”, the “Tube Formation” value ([4]; concentration 5 μM) was “++” and the “Tube Formation” value ([4]; concentration 50 μM) was “+++”.
“1-(4-Methoxy-benzenesulfonyl)-4-methyl-5-oxo-piperazine-2-hydroxamate [Example 25]” showed an IC50 [1] of 3 nM, an IC50 [2] of 82 nM and an IC50 [3] of 16 nM. The “Tube Formation” value ([4]; concentration 5 μM) was “−”, the “Tube Formation” value ([4]; concentration 50 μM) was “−” and the “Tube Formation” value ([4]; concentration 100 μM) was “+”.
Work on `CCCCCCCCN1CC(C(=O)O)N(S(=O)(=O)c2ccc(NC(=O)c3ccc(Cl)cc3)cc2)CC1=O` (stereo not drawn) [Example 60, 1-[4-(4-chloro-benzoylamino)-benzenesulfonyl]-4-octyl-5-oxo-piperazine-2-carboxylic acid] yielded an IC50 [1] of 3 nM, an IC50 [2] of 18 nM and an IC50 [3] of 24 nM. For the same compound, the IC50 [5] was 3.2 nM, the “Tube Formation” value ([4]; concentration 0.5 μM) was “+” and the “Tube Formation” value ([4]; concentration 5 μM) was “++”. The “Tube Formation” value ([4]; concentration 50 μM) was “++”.
With `CCCCCCN1CC(C(=O)O)N(S(=O)(=O)c2ccc(-c3ccc(Br)cc3)cc2)CC1=O` (stereo not drawn) [Example 45, 1-(4′-Bromo-biphenyl-4-sulfonyl)-4-hexyl-5-oxo-piperazine-2-carboxylic acid] the IC50 [1] was 11 nM, the IC50 [2] was 95 nM and the IC50 [3] was 82 nM. The “Tube Formation” value ([4]; concentration 0.5 μM) was “++”, the “Tube Formation” value ([4]; concentration 5 μM) was “++” and the “Tube Formation” value ([4]; concentration 50 μM) was “++”.
For “4-Butyl-1-(4-methoxy-benzenesulfonyl)-5-oxo-piperazine-2-hydroxamate [Example 19]”, the IC50 [1] was 15 nM, the IC50 [2] was 47 nM and the IC50 [3] was 14 nM. The “Tube Formation” value ([4]; concentration 5 μM) was “+”, the “Tube Formation” value ([4]; concentration 50 μM) was “+” and the “Tube Formation” value ([4]; concentration 100 μM) was “++”.
For `COc1ccc(S(=O)(=O)N2CC(=O)NCC2C(=O)NO)cc1` (stereo not drawn) [Example 5, 1-(4-Methoxy-benzenesulfonyl)-5-oxo-piperazine-2-hydroxamate], the IC50 [1] was 4 nM, the IC50 [5] was 12.4 nM and the IC50 [6] was 28 nM. For the same compound, the “Tube Formation” value ([4]; concentration 5 μM) was “±”, the “Tube Formation” value ([4]; concentration 50 μM) was “+” and the “Tube Formation” value ([4]; concentration 100 μM) was “++”.
`CCCCCCCCN1CC(C(=O)O)N(S(=O)(=O)c2ccc(-c3ccc(Br)cc3)cc2)CC1=O` (stereo not drawn) [Example 33, 1-(4′-Bromo-biphenyl-4-sulfonyl)-4-octyl-5-oxo-piperazine-2-carboxylic acid] gave an IC50 [1] of 80 nM, an IC50 [2] of 2430 nM and an IC50 [3] of 2100 nM. The “Tube Formation” value ([4]; concentration 5 μM) was “+”, the “Tube Formation” value ([4]; concentration 50 μM) was “++” and the “Tube Formation” value ([4]; concentration 100 μM) was “+++”.
